# From patent US6482850B2, “Hydrolysis-promoting hydrophobic taxane derivatives” (priority 1995, dated 2002)
# Assays:
# [1] = tested on: CDF1 mice; test: In vivo toxicity, i.p. x 5, non-tumor bearing mice; conditions: 30 days observation
# Protocol: A separate group (n=5) was injected with concentrations of Cremophor® EL and ethanol (in PBS) equivalent to the highest concentration of the test treatment. Mortality was recorded daily and body weights taken at least twice weekly for an observation period of 30 days.
# [2] = tested on: OVCAR-3 human ovarian cancer; test: i.p. OVCAR-3 tumor, i.p. treatment, survival; conditions: for % ILS / LTS/n (mice that survived to 300 days) / MST Days ± SEM (n) / Median survival time: treated days 20, 22, 24, 26 and 28 i.p.; for MST Days ± SEM (n) / Median survival time: long-term survivors not included
# Protocol: C.B-17 SCID female mice were injected i.p. with 5×10^6 OVCAR-3 human ovarian cancer cells (day 0). […] Note that long-term survivors (mice that survived through day 300 after cell inoculation) were not included in mean, median, or % ILS calculations.
structure (smiles),measurement,setting,value
"CCCCCCCCCCCCCC[C@@H](Br)C(=O)O[C@@H](C(=O)O[C@H]1C[C@@]2(O)[C@@H](OC(=O)c3ccccc3)[C@@H]3[C@]4(OC(C)=O)CO[C@@H]4C[C@H](O)[C@@]3(C)C(=O)[C@H](OC(C)=O)C(=C1C)C2(C)C)[C@@H](NC(=O)c1ccccc1)c1ccccc1 [BrC16HT, 2′-(R)-[2-bromohexadecanoyl] paclitaxel]",Number of Mice surviving/Total,"[1]; i.p. days 1 through 5, 12.5 mg/kg",10/10
same,Number of Mice surviving/Total,"[1]; i.p. days 1 through 5, 25 mg/kg",19/19
same,Number of Mice surviving/Total,"[1]; i.p. days 1 through 5, 37.5 mg/kg",10/10
same,Number of Mice surviving/Total,"[1]; i.p. days 1 through 5, 50 mg/kg",14/20
same,Number of Mice surviving/Total,"[1]; i.p. days 1 through 5, 75 mg/kg",0/5
same,Number of Mice surviving/Total,"[1]; i.p. days 1 through 5, 100 mg/kg",0/2
same,survival compared to Taxol® 25 mg/kg,"[2]; BrC16HT at both 25 and 50 mg/kg, delayed i.p. schedule",significantly increased survival
same,"long-term survivors (LTS), in words",[2]; delayed i.p. schedule (Table 9b),clear dose-response effect with regard to LTS
same,survival of tumor-bearing mice vs. control,"[2]; early (days 1, 3, 5, 7 & 9) and delayed (days 20, 22, 24, 26 & 28) i.p. treatment schedules",significantly prolonged (p<0.05 vs. control) the survival
same,survival time compared with Taxol® at equivalent doses,[2]; early and delayed i.p. schedules,more effective than Taxol® in extending survival time
same,% ILS,[2]; 25 mg/kg,115%
same,LTS/n (mice that survived to 300 days),[2]; 25 mg/kg,4/10
same,MST Days ± SEM (n),[2]; 25 mg/kg,220 ± 13 (6) Days
same,Median survival time,[2]; 25 mg/kg,221 days
same,% ILS,[2]; 50 mg/kg,80%
same,LTS/n (mice that survived to 300 days),[2]; 50 mg/kg,7/10
same,MST Days ± SEM (n),[2]; 50 mg/kg,183 ± 67 (3) Days
same,Median survival time,[2]; 50 mg/kg,245 days
